This assay relates to B16-F1 mouse melanoma cells. Description: Melanin Synthesis Assay. In kind it is cell-based. As for the experimental part: A B16-F1 mouse melanoma cell line may be employed as an assay to measure melanin synthesis. The B16-F1 cells may be obtained from American Tissue Culture Collection, Virginia, USA. The cell culture medium that may be used in the assay may comprise 500 mL of Dulbecco's Modified Eagle's Medium (DMEM), 50 mL Fetal Bovine Serum (FBS), and 5 mL of penicillin-streptomycin liquid. B16-F1 cells that are cultured in this medium and grown to greater than 90% confluency synthesize melanin. While not intending to be bound by any theory, it is hypothesized that melanin synthesis is stimulated by the culture medium and/or stress induced by growth to a high confluency. The DMEM and FBS can be obtained from American Tissue Culture Collection and the penicillin-streptomycin liquid can be obtained from Invitrogen, Inc., California, USA. Equipment used in the assay include a CO2 incubator, such as a Form a Series Model 3110 by Therma Scientific, Massachusetts, USA; a hemocytometer, such as a Bright Line model by Hauser Scientific, Pennsylvania, USA; and a UV-Visible Spectrum Plate Reader, such as a SpectraMax250 from Molecular Devices, California, USA. The assay steps may include:
Day 0—Cell Growth: Warm the cell culture medium to 37° C. and place 29 mL into a T-150 flask. Add approximately 1×10^6 of B16-F1 passage 1 mouse cells to the T-150 flask and incubate for 3 days at 37° C., 5% CO2, 90% relative humidity, until ˜80% confluency;
Day 3—Initiate a 96 Well Plate: At day 3, trypsinize the cells from the T-150 flask and determine the concentration of cells using a hemocytometer. Initiate a 96 well plate with 2,500 cells per well in 100 microliters of cell culture medium. Incubate the plate at 37° C., 5% CO2, 90% relative humidity for about 2 days until at least 20% to 40% confluency;
Day 5—Decant the cell culture medium from the plate and replace with fresh culture medium (100 uL per well). Add 1 microliter of [test compound] diluted in a [water or DSMO] solvent. Multiple dilution ratios may be tested in order to generate a dose response curve, wherein preferably three wells are treated with each dilution ratio. Controls comprise wells having the cell culture medium, B16-F1 cells, and the solvent (control #1); wells comprising the cell culture medium and the solvent (control #2); and optionally wells comprising the cell culture medium, solvent and [test compound] when necessary to control for the [test compound] background color (control #3);
Day 7—Measure Melanin Production: Cells should have a confluency greater than ˜90%. […] Add 100 microliters of a 0.75% sodium hydroxide solution to each well. Read the 96 well plate using the UV-Vis Plate Reader at 410 nm to optically measure the amount of melanin produced between wells that are treated with [test compound] and control wells that are not treated with a test compound. Wells in which melanin is produced typically appear brownish in color. Wells in which little melanin is produced typically appear clear to light purple in color. Percentage of melanin synthesis inhibition is calculated by the following equation: […]
Where OD410 is the Optical Density at 410 nm as measured by the UV-Vis Spectrum Plate Reader.
When Control #3 is used, the formula for percentage melanin synthesis inhibition is: […]
Using generally the assay outlined above, melanin synthesis in treated B16-F1 cells was inhibited as compared to control cells as shown in Table 1.

[1] abbreviates: test material (0.002 to 0.5%) combined with Bis/HD/Nia.
The mark [2] stands for this setting: test material (0.002 to 0.5%) combined with Bis/UP/Nia.

The structures appear in SMILES notation. Counter-ions that a name gives are not always drawn.

On to `CCCCC(CC)COC(=O)CCCCCCCCC(=O)OCC(CC)CCCC` (stereo not shown) [Bis (2-ethylhexyl) Sebacate, Bis (2-ethylhexyl) sebacate], for which the “Average Melanin % Inhibition” value by setting is: under setting [1], 79%; under setting [2], 88%.

On to `CCCCCCCCCCCCCCCCCCOCC(O)CO` (stereo not shown) [Sample 8, batyl alcohol], for which the “Average Melanin % Inhibition” value (Table 2, 0.03% Bat, 0.003% Bis, 0.0005% HD, 0.0001% UP, 0.0005% Nia where included) is on record as 7%.

Turning to `CCCCCCCCCCC(O)CCCC` (stereo not shown) [5-Pentadecanol], the “Average Melanin % Inhibition” value under setting [1] is on record as 46%.

Regarding `CCCCCCCCCCCCCCCCCC(=O)OCC(O)CO` (racemic) [1-Stearoyl rac-Glycerol, 1-Stearoyl-rac-glycerol], the “Average Melanin % Inhibition” value (test material (0.002 to 0.5%) combined with Bis/HD/UP/Nia) worked out at 38%.

In the case of `CCCCCCCCCCCCCCCC(=O)OCC` [Ethyl Palmitate, Ethyl palmitate], the “Average Melanin % Inhibition” value worked out at 82% under setting [1] and 84% under setting [2].

In the case of `CCCCC(CC)COC(=O)/C=C\C(=O)OCC(CC)CCCC` (stereo not shown) [Bis (2-ethylhexyl) Maleate, Bis (2-ethylhexyl) maleate], the “Average Melanin % Inhibition” value under setting [1] is listed as 32% and the “Average Melanin % Inhibition” value under setting [2] is 45%.

Take `CC(C)=CCC[C@](C)(O)[C@@H]1CC=C(C)CC1` [Sample 1, bisabolol]: under “Table 1, B16-F1 cells, 0.1% Bis, 0.00056% HD, 0.00011% UP, 0.00056% Nia where included”, the “Average Melanin % Inhibition” value was 2.2%.

For `CCCCC(CC)COC(=O)CCCCC(=O)OCC(CC)CCCC` (stereo not shown) [Bis (2-ethylhexyl) Adipate, Bis (2-ethylhexyl) adipate], the “Average Melanin % Inhibition” value under setting [2] stood at 42%.

In the case of `CCCCCCCCCCCCCCCCCCO` [Stearyl Alcohol, Stearyl alcohol], the “Average Melanin % Inhibition” value is, setting by setting: under setting [1], 60%; under setting [2], 73%.

The values are drawn from patent US9757317B2, “Cosmetic compositions and methods for inhibiting melanin synthesis” (The Procter & Gamble Company, priority 2014, dated 2017).
